From patent EP0598011B1, “ECDYSTEROID DEPENDENT REGULATION OF GENES IN MAMMALIAN CELLS” (GENENTECH, INC., priority 1991, dated 1993)

Molecular target: T1, DHR23α (Drosophila melanogaster, UniProt P34021)
T1 construct: To isolate the full-length DHR23α clones; expressed in transfected cells; host or cells: human 293 cells
T1 sequence (P34021 1-878): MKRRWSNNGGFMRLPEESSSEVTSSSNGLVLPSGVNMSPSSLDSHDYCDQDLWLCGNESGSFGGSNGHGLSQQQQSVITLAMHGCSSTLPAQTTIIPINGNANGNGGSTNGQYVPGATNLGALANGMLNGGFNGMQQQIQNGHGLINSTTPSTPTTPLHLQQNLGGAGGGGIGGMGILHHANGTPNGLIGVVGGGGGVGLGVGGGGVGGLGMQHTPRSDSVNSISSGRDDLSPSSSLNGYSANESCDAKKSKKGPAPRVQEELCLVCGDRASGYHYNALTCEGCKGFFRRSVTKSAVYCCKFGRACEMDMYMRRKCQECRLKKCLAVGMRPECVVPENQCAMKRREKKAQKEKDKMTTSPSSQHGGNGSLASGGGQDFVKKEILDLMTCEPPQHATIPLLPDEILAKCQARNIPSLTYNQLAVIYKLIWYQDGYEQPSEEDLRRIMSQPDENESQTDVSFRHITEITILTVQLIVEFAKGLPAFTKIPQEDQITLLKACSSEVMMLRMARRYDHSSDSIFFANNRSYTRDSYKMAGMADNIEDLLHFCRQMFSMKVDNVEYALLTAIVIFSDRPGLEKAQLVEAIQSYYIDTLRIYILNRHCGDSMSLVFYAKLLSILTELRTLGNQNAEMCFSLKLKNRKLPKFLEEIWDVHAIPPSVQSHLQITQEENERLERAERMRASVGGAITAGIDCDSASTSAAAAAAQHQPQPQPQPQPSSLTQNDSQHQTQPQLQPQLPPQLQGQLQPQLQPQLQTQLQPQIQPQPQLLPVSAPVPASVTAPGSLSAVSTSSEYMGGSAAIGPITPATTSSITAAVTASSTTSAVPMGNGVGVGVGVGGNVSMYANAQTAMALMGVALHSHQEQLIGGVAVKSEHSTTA
T1 sequence (P19793 1-462 partner): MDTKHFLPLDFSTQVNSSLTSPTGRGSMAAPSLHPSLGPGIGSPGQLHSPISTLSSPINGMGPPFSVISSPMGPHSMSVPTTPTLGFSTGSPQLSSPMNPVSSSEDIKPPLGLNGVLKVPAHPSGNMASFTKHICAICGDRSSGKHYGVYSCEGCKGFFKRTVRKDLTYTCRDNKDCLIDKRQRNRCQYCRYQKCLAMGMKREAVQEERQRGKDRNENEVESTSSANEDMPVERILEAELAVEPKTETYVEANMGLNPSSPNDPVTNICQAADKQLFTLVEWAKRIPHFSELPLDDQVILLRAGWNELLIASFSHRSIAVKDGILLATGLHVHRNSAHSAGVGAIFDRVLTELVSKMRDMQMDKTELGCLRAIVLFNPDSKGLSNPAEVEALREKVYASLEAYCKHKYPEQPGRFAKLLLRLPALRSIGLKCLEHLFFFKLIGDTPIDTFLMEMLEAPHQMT
Assay: DHR23α transactivation of EcRE (Ec4M-77CO) CAT reporter in transfected human 293 cells
Type: cell-based
Conditions: pRSV.DHR23α + pEc4M-77CO (EcRE) CAT reporter, ligand 1 µM, 48 hrs
Procedure: Figure. 2. […] Human 293 cells were cotransfected with 2.5 µg of the expression plasmid pRSV.DHR23α or the parental expression plasmid pRSV (Control) and 0.5 µgs of the reporter plasmid pEc4M-77CO (EcRE) or pG4M-77CO (GRE). As a control for transfection efficiency, 0.5 µgs of the control plasmid pRSV.hGH was included in the transfection mixture. After transfection, cells were treated without (-) or with alpha-ecdysone (alpha), 20-OH ecdysone (20-OH), polypodine B (ppB), ponasterone A (ponA) or muristeroine A (murA). CAT extracts were harvested 48 hrs after transfection and assayed. The values were normalized to the expression of hGH and the average values of three independent experiments are shown. The "fold induction" represents the level of expression of the reporter gene in cells incubated with hormone divided by the expression of that reporter gene in extracts from cells incubated in the absence of added ligand.
I determined whether DHR23α could function in mammalian cells treated with ecdysteroids to enhance the transcription of a reporter gene containing EcREs linked to the murine mammary tumor virus (MTV) promoter and chloramphenicol acetyltransferase (CAT) gene. Human 293 cells were cotransfected with an RSV-based expression vector that encodes DHR23a and the reporter gene Ec4M-77CO that contains 4 copies of an ecdysone response element (EcRE) from the Drosophila HSP27 promoter (G. Riddihough and H. R. B. Pelham, EMBO J. 6, 3729 [1987]) linked to an MTV promoter-CAT construct.
Human 293 cells were cotransfected with 2.5 µg of the expression plasmid pRSV.DHR23α or the parental expression plasmid pRSV (Control) and 0.5 µgs of the reporter plasmid pEc4M-77CO (EcRE) or pG4M-77CO (GRE). As a control for transfection efficiency, 0.5 µgs of the control plasmid pRSV.hGH was included in the transfection mixture. After transfection, cells were treated without (-) or with alpha-ecdysone (alpha), 20-OH ecdysone (20-OH), polypodine B (ppB), ponasterone A (ponA) or muristeroine A (murA). All candidate ligands were added at a concentration of 1 µM. CAT extracts were harvested 48 hrs after transfection, and assays were performed as described (D. R. Cavener, Nucl. Acids Res. 15, 1353-1361 [1987]). The values were normalized to the expression of hGH and the average values of three independent experiments are shown in Figure 2. The "fold induction" represents the level of expression of the reporter gene in cells incubated with hormone divided by the expression of that reporter gene in extracts from cells incubated in the absence of added ligand.
Cells were transfected with the DHR23α expression vector and Ec4M-77CO reporter gene and treated without (-) or with the following hormones (1 µM): muristerone A (mur A) dexamethasone (Dex) 17β-estradiol (E2), aldosterone (Aldo), corticosterone (Cort) hydroxycorticosterone (OH-Cort) thyroid hormone (T3), promegestone (Promeg) or 1,25-dihydroxy vitamin D3 (VD3). Reporter gene activity was determined as described above for Figure 2.

CC(C)CCC(O)[C@](C)(O)[C@H]1CC[C@@]2(O)C3=CC(=O)C4(O)CC(O)C(O)C[C@]4(C)[C@H]3C(O)C[C@]12C (some centres unmarked) [muristerone A, 2,3,5,11,14,20,22-Heptahydroxy-7-cholesten-6-one]
agonist for DHR23α in mammalian cells (expression of the reporter gene): markedly increased
agonist for DHR23α in mammalian cells (expression of the reporter gene) (listed as muristerone): strong agonist
